Laboratory results reported in patent US9745299B2, “Substituted tricyclic benzimidazoles as kinase inhibitors” (SELVITA SA, priority 2012, dated 2017).

Legend:
SW480 cells = assay: MTS viability assay, SW480; type: cell-based; details: Homo sapiens, SW480, 72 hour incubation, read-out: IC50 [μM] SW-480 ED50
Text: (§1) The viability of CDK8 expressing cells can be evaluated using a tetrazolium salt reduction cell-based assay. In viable cells this colorimetric assay can measure mitochondrial reduction of a tetrazolium component (MTS) into an […] formazan product. For MTS viability assay, human colon cancer cell lines were used (SW480 and HCT116 cell lines), containing elevated levels of CDK8 protein and highly dependent on its expression for proliferation [see, Firenstein et al. Nature 455 (25):547-551, (2008)]. These cell lines were used to determine the activity of the compounds provided herein to inhibit CDK8 in intact cells. Human tumor cell lines were obtained from ATCC (Rockville Md. USA). In each case, and by methods known to those practiced in the art of cell culture, vaiability was measured after 72 hour incubation with the compounds provided herein using a standard MTS protocol (CellTiter 96® AQueous Non-Radioactive Cell Proliferation Assay).
(§2) Briefly, cells were plated at 10,000-20,000 cells per well in DMEM medium supplemented with 10% fetal bovine serum. The compound plate was set up by aliquoting into column 1 of a 96-well plate, the negative control (DMSO), aliquoting into column 12 the positive control, and titrating the test compound in serial dilutions into columns 2-11. An aliquot from each well of the compound plate was transferred to the plated cells and then incubated at 37° C. in 5% CO2. 20 μL of MTS tetrazolium was added to each well of optical plate and the cells were incubated at 37° C. in 5% CO2 for 2 hours. The absorbance was measured at 490 nm using a microplate reader.

CDK2/CyclinE = target: T1, CDK2/CyclinE (Homo sapiens, UniProt P24941); assay: ADP-Glo Kinase Assay, CDK2/CyclinE; type: biochemical; details: read-out: % inhibition at 1 μM CDK2/CyclinE
T1 construct: purchased Millipore, Billerica, Mass., USA
Procedure: (§3) Testing of the compounds described in this invention was carried out using the ADP-Glo™ Kinase Assay from Promega Corporation (Madison, Wis., USA).
(§4) The ADP-Glo™ Kinase Assay is a luminescent ADP detection assay to measure kinase activity by quantifying the amount of ADP produced during a kinase reaction. The kinase assay is performed in kinase assay buffer (5 mM MOPS, pH 7.5, 5 mM MgCl2, 0.4 mM EDTA, 1.5 mM DTT). Test samples initially dissolved in DMSO at 10 mM were diluted with the assay buffer to 1000 nM. A 30 μL volume/well of a mixture of substrates containing ATP (final ATP concentration in each kinase assay was equal to its apparent ATP Km).
(§5) The assay was performed in two steps: first, after the kinase reaction, an equal volume of ADP-Glo™ Reagent was added to terminate the kinase reaction and deplete the remaining ATP. Second, the Kinase Detection Reagent was added to simultaneously convert ADP to ATP and allowed the newly synthesized ATP to be measured using a luciferase/luciferin reaction. The luminescent signal generated was proportional to the ADP concentration produced and was correlated with kinase activity.

CDK8/CyclinC = target: T2, CDK8/CyclinC (Homo sapiens, UniProt P49336); assay: ADP-Glo Kinase Assay, CDK8/CyclinC; type: biochemical; details: read-out: % inhibition at 1 μM CDK8/CyclinC; also: ATP at apparent Km (53 µM)
T2 construct: purchased ProQinase, Freiburg, Germany
Procedure: as §3, §4, §5

HCT116 cells = assay: MTS viability assay, HCT116; type: cell-based; details: Homo sapiens, HCT-116, HCT116, 72 hour incubation, read-out: IC50 [μM] HCT116 ED50
Text: as §1, §2

CDK9/CyclinT = target: T3, CDK9/CyclinT (Homo sapiens, UniProt P50750); assay: ADP-Glo Kinase Assay, CDK9/CyclinT; type: biochemical; details: read-out: % inhibition at 1 μM CDK9/CyclinT; also: ATP at apparent Km (26 µM)
T3 construct: purchased Proqinase, Freiburg, Germany
Procedure: as §3, §4, §5

CDK7/CyclinH/MAT1 = target: T4, CDK7/CyclinH/MAT1 (Homo sapiens, UniProt P50613); assay: ADP-Glo Kinase Assay, CDK7/CyclinH/MAT1; type: biochemical; details: read-out: % inhibition at 1 μM CDK7/CyclinH/MAT1
T4 construct: purchased Millipore, Billerica, Mass., USA
Procedure: as §3, §4, §5

CDK1/CyclinB = target: T5, CDK1/CyclinB (Homo sapiens, UniProt P06493); assay: ADP-Glo Kinase Assay, CDK1/CyclinB; type: biochemical; details: read-out: % inhibition at 1 μM CDK1/CyclinB; also: ATP at apparent Km (20 µM)
T5 construct: purchased Millipore, Billerica, Mass., USA
Procedure: Testing of the compounds described in this invention was carried out using the ADP-Glo™ Kinase Assay from Promega Corporation (Madison, Wis., USA). […] The ADP-Glo™ Kinase Assay is a luminescent ADP detection assay to measure kinase activity by quantifying the amount of ADP produced during a kinase reaction. The kinase assay is performed in kinase assay buffer (5 mM MOPS, pH 7.5, 5 mM MgCl2, 0.4 mM EDTA, 1.5 mM DTT). Test samples initially dissolved in DMSO at 10 mM were diluted with the assay buffer to 1000 nM. A 30 μL volume/well of a mixture of substrates containing ATP (final ATP concentration in each kinase assay was equal to its apparent ATP Km). […] The assay was performed in two steps: first, after the kinase reaction, an equal volume of ADP-Glo™ Reagent was added to terminate the kinase reaction and deplete the remaining ATP. Second, the Kinase Detection Reagent was added to simultaneously convert ADP to ATP and allowed the newly synthesized ATP to be measured using a luciferase/luciferin reaction. The luminescent signal generated was proportional to the ADP concentration produced and was correlated with kinase activity.

CDK5/p25 = target: T6, CDK5/p25 (Homo sapiens, UniProt Q00535); assay: ADP-Glo Kinase Assay, CDK5/p25; type: biochemical; details: read-out: % inhibition at 1 μM CDK5/p25; also: ATP at apparent Km (12 µM)
T6 construct: purchased Millipore, Billerica, Mass., USA
Procedure: as §3, §4, §5

T5 sequence (P06493 whole entry): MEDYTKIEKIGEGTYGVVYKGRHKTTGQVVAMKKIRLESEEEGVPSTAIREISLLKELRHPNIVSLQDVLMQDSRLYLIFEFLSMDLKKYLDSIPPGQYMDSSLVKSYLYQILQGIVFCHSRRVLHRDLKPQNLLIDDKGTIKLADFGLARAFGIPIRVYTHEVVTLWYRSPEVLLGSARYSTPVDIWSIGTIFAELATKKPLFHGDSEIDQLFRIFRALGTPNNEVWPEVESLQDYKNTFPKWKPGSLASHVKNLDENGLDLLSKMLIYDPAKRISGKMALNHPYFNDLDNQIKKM
T5 sequence (P14635 whole entry partner): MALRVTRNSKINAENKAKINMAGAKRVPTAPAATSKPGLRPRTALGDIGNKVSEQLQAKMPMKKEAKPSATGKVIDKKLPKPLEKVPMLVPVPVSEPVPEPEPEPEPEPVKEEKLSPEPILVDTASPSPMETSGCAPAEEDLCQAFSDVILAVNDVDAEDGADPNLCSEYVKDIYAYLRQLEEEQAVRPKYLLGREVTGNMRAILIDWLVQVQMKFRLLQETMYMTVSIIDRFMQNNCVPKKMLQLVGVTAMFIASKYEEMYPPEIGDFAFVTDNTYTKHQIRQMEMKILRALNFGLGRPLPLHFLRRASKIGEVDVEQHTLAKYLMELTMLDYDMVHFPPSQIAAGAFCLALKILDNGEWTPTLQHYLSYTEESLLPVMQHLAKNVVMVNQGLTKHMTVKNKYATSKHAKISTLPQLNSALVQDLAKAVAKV
T2 sequence (P49336 whole entry): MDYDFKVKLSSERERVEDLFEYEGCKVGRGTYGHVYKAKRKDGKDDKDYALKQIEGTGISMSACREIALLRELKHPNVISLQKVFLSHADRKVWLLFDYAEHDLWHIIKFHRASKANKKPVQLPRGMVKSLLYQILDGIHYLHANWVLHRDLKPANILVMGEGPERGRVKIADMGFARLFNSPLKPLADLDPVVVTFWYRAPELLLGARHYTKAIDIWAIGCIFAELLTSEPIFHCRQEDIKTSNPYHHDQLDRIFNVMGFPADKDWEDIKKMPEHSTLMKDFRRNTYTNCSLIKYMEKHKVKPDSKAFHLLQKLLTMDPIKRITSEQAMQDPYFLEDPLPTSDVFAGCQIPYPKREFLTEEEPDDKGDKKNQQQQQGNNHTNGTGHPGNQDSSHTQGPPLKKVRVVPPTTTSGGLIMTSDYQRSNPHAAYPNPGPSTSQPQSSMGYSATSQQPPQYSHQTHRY
T2 sequence (P24863 whole entry partner): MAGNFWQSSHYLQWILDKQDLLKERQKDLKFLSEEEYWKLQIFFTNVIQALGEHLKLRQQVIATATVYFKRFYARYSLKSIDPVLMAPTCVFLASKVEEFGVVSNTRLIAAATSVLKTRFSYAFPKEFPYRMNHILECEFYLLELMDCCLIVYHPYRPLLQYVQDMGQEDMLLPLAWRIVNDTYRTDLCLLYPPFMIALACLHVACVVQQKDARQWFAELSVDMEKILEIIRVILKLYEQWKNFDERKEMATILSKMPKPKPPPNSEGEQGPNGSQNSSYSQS
T3 sequence (P50750 whole entry): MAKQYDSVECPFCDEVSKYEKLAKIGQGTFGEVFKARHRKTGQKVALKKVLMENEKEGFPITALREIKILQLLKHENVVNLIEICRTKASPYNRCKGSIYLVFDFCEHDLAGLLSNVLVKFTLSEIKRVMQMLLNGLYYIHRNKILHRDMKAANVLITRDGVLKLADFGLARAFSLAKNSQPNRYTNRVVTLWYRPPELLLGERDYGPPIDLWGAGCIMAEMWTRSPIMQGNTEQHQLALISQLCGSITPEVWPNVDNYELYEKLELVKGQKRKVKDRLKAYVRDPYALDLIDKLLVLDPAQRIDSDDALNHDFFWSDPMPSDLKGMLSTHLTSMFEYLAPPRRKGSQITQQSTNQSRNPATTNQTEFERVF
T3 sequence (O60563 whole entry partner): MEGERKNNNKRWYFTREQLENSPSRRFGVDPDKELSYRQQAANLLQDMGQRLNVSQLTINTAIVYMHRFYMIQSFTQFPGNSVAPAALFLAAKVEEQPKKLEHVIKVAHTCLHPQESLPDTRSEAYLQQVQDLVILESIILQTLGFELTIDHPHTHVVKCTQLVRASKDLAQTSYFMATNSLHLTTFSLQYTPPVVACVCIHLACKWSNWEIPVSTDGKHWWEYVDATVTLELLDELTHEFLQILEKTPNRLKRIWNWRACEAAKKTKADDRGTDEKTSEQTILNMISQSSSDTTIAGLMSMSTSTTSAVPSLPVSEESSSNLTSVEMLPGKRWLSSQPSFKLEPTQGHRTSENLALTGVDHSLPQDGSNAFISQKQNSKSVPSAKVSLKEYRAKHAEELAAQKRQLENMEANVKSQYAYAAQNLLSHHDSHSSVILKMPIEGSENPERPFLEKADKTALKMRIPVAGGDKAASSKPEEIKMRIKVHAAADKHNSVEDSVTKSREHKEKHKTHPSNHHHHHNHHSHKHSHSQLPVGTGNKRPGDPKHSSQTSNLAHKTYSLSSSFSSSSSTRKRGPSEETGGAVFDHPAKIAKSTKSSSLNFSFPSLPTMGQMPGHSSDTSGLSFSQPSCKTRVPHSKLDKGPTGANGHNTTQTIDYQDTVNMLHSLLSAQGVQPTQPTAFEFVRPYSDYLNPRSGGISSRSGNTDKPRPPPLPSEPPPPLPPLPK
T4 sequence (P50613 whole entry): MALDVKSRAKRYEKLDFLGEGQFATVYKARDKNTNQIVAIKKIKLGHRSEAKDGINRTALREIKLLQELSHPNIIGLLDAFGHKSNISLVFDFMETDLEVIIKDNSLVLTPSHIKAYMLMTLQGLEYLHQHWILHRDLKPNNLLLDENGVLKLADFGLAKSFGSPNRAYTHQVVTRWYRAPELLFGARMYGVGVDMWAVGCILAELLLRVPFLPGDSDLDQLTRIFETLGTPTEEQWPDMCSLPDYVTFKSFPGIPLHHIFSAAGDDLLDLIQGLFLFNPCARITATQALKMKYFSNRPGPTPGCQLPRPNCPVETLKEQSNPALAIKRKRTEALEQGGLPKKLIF
T4 sequence (P51946 whole entry partner): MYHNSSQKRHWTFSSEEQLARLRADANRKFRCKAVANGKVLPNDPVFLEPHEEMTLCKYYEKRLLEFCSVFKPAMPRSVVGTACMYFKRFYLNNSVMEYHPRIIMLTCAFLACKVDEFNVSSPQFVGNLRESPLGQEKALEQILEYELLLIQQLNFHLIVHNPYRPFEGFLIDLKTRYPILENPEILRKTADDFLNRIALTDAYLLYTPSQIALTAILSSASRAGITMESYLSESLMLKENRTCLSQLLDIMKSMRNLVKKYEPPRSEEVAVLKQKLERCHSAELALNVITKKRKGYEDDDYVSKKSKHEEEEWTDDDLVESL
T4 sequence (P51948 whole entry partner): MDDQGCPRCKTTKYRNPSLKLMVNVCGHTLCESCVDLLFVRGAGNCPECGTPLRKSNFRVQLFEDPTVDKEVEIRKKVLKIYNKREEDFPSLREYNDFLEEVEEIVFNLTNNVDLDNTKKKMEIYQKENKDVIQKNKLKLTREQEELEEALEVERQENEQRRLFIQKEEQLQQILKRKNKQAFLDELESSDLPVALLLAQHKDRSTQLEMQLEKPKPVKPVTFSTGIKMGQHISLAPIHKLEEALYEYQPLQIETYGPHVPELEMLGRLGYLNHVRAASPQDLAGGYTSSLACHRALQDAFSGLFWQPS
T6 sequence (Q00535 whole entry): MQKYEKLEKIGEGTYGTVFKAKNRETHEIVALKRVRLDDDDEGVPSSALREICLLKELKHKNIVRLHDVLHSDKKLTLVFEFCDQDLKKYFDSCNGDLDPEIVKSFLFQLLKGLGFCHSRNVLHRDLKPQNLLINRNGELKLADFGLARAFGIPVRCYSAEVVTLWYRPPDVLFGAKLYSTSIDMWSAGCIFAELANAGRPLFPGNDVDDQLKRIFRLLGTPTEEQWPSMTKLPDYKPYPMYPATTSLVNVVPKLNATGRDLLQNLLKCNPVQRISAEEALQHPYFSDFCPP
T6 sequence (Q15078 99-307 partner limits assumed): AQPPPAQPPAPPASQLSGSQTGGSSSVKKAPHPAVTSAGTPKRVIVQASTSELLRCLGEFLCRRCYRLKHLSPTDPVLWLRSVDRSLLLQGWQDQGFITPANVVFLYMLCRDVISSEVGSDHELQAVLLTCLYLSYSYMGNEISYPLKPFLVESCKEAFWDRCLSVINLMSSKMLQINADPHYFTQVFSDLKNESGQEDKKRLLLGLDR

Row | Structure (SMILES) | IC50 (SW480 cells) | inhibition at 1 µM (CDK2/CyclinE) | inhibition at 1 µM (CDK8/CyclinC) | IC50 (HCT116 cells) | inhibition at 1 µM (CDK9/CyclinT) | inhibition at 1 µM (CDK7/CyclinH/MAT1) | inhibition at 1 µM (CDK1/CyclinB) | inhibition at 1 µM (CDK5/p25)
1 | N[C@H]1CCN(c2nc3c(Br)c(Br)c(Br)c4c3n2CCC4)C1 [Example 1G] | 1.1 µM | 29% | 96% | 0.7 µM | 45% |  |  | 
2 | C[C@H]1CN(c2nc3c(I)c(Br)c(Br)c4c3n2CCC4)CCN1 [Example 3T] | 1.3 µM | 17% | 90% | 1.6 µM | 21% |  |  | 
3 | Brc1c(Br)c2c3c(nc(NC4CCNCC4)n3CCC2)c1Br [Example 1J] |  |  |  | 0.5 µM |  |  |  | 
4 | N[C@@H]1CCCC[C@H]1Nc1nc2c(Br)c(Br)c(Br)c3c2n1CCC3 [Example 1B] | 0.5 µM |  |  | 1.3 µM |  |  |  | 
5 | COc1c(Br)c2c3c(nc(N4CCNCC4)n3CCC2)c1Br [Example 1AN] |  |  | 61% | 2.4 µM | 10% |  |  | 
6 | NC1CCCN(c2nc3c(Br)c(Br)c(Br)c4c3n2CCC4)C1 (stereo not drawn) [Example 1I] |  |  |  | 1.5 µM |  |  |  | 
7 | C[C@H]1CN(c2nc3c(Br)c(Br)c(Br)c4c3n2CCC4)CCN1 [Example 3AA] | 1.3 µM | 20% | 96% | 0.4 µM | 21% |  |  | 
8 | CC1CCc2c(Br)c(Br)c(Br)c3nc(N4CCNCC4)n1c23 (stereo not drawn) [Example 1AU] | 1.1 µM |  | 90% | 0.2 µM | 12% |  |  | 
9 | CC1(C)CN(c2nc3c(I)c(Br)c(Br)c4c3n2CCC4)CCN1 [Example 3W] | 1.4 µM | 8% | 92% | 1.5 µM | 10% |  |  | 
10 | NC1CCN(c2nc3c(Br)c(Br)c(Br)c4c3n2CCC4)CC1 [Example 1AG] | 0.5 µM | 33% | 82% | 1.3 µM | 42% |  |  | 
11 | NCC1CN(c2nc3c(Br)c(Br)c(Br)c4c3n2CCC4)CCO1 (stereo not drawn) [Example 1AF] | 1.8 µM |  |  | 1.3 µM |  |  |  | 
12 | CN1CCN(c2nc3c(I)c(Br)c(Br)c4c3n2CCC4)CC1 [Example 3AM] | 4 µM | 40% | 100% | 2.8 µM | 39% |  |  | 
13 | Brc1c(Br)c2c3c(nc(NC4CCNC4)n3CCC2)c1Br (stereo not drawn) [Example 1L] | 1.4 µM | 19% | 81% | 1.1 µM | 9% |  |  | 
14 | CC1CCCN1c1nc2c(Br)c(Br)c(Br)c3c2n1CCC3 (stereo not drawn) [Example 3R] |  | 0% | 100% |  | 4% | 36% | 0% | 4%
15 | Cc1c(Br)c(Br)c2c3c1nc(N1CCCNCC1)n3CCC2 [Example 1AZ] |  |  | 61% | 1.6 µM |  |  |  | 
16 | NCCCNc1nc2c(Br)c(Br)c(Br)c3c2n1CCC3 [Example 1C] |  | 8% | 52% |  | 9% |  | 0% | 
17 | CC1CNCCN1c1nc2c(Br)c(Br)c(Br)c3c2n1CCC3 (stereo not drawn) [Example 1E] | 2.7 µM | 2% | 89% | 1.9 µM | 20% |  |  | 
18 | Cc1c(Br)c2c3c(nc(N4CCNCC4)n3CCC2)c1Br [Example 1AX] |  | 1% | 70% | 1.5 µM | 7% |  | 7% | 

Row | Structure (SMILES) | IC50 (SW480 cells) | inhibition at 1 µM (CDK2/CyclinE) | inhibition at 1 µM (CDK8/CyclinC) | IC50 (HCT116 cells) | inhibition at 1 µM (CDK9/CyclinT) | inhibition at 1 µM (CDK7/CyclinH/MAT1) | inhibition at 1 µM (CDK1/CyclinB) | inhibition at 1 µM (CDK5/p25)
19 | NC1CCCN(c2nc3c(Br)c(Br)c(Br)c4c3n2CCC4)CC1 (stereo not drawn) [Example 1M] | 1.5 µM | 6% | 59% | 1.1 µM | 0% |  |  | 
20 | CN1CCC(c2nc3c(Br)c(Br)c(Br)c4c3n2CCC4)CC1 [Example 7B] | 6.3 µM | 14% | 88% | 2.6 µM | 6% |  |  | 
21 | Cc1c(Br)c(Br)c2nc(N3CCNCC3)n3c2c1CCC3 [Example 1S] | 2.5 µM |  | 54% | 1.7 µM | 4% |  |  | 
22 | Brc1c(Br)c2c3c(nc(N4CCCCC4)n3CCC2)c1Br [Example 3D] |  | 0% | 87% |  | 20% | 11% | 2% | 0%
23 | CN(C)CCNc1nc2c(Br)c(Br)c(Br)c3c2n1CCC3 [Example 3K] |  |  |  | 2.2 µM |  |  |  | 
24 | Cc1c(Br)c(Br)c2c3c1nc(N1CC[C@@H](N)C1)n3CCC2 [Example 1AK] | 1.8 µM | 0% | 93% | 1.7 µM | 2% |  |  | 
25 | N#Cc1c(Br)c(Br)c2c3c1nc(N1CCNCC1)n3CCC2 [Example 8B] | 4.1 µM | 0% | 90% | 1.7 µM | 20% |  |  | 
26 | Nc1nc2c(Br)c(Br)c(Br)c3c2n1CCC3 [Example 3J] |  | 1% | 58% |  | 34% | 0% | 0% | 53%
27 | NCCNc1nc2c(I)c(Br)c(Br)c3c2n1CCC3 [Example 1W] |  | 0% | 100% |  | 13% | 0% | 7% | 2%
28 | C[C@@H]1CN(c2nc3c(I)c(Br)c(Br)c4c3n2CCC4)CCN1 [Example 3AD] | 1.3 µM | 16% | 100% | 0.6 µM | 42% |  |  | 
29 | Brc1cc2nc(N3CCNCC3)n3c2c(c1Br)CCC3 [Example 1N] |  |  | 49% | 4.3 µM |  |  |  | 
30 | N[C@@H]1CCN(c2nc3c(Br)c(Br)c(Br)c4c3n2CCC4)C1 [Example 1AE] | 1.1 µM | 44% | 97% | 0.3 µM | 61% |  |  | 
31 | Cc1c(Br)c2c3c(nc(NCCN)n3CCC2)c1Br [Example 1P] |  |  |  | 1.4 µM |  |  |  | 
32 | NCCNc1nc2c([N+](=O)[O-])c(Br)c(Br)c3c2n1CCC3 [Example 1U] |  |  |  | 1.6 µM |  |  |  | 
33 | C[C@@H]1CN(c2nc3c(Br)c(Br)c(Br)c4c3n2CCC4)CCN1 [Example 3AB] | 1.4 µM | 27% | 84% | 0.4 µM | 47% |  |  | 
34 | Cc1c(Br)c(Br)c2c3c1nc(N[C@H]1CCNC1)n3CCC2 [Example 1AL] | 1.8 µM |  |  | 5.3 µM |  |  |  | 
35 | Cc1c(Br)c(Br)c2c3c1nc(NCCN)n3CCC2 [Example 1O] |  |  |  | 1.3 µM |  |  |  | 
